The test system of data set [1] is tubulin. Description: Peptide-on-membrane chip blot overlay with purified tubulin. Type of data set: binding, mice. As to conditions: purified tubulin overnight at 4° C., anti-βIII tubulin antibody. From the text:
Peptide chips corresponding to the NFL, NFM and NFH neurofilament subunits were obtained according to Frank et al., 1992, with an ASP 222 automat spot robot. Each neurofilament sequence was divided into sequences of 15 amino acids.
These peptides overlap 12 amino acids of the next peptide. The overlapping peptides were synthesized on spots, like a chip, on a specially produced cellulose membrane (AIMS scientific product, GmbH, Braunschweig, Germany). The peptides are bound to the membrane with a polyethylene glycol bridge owing to their carboxy-terminal amino acid. The synthetic procedure followed is that of Frank et al., 1996.
Alternatively, the strips that were detected were cut out and analyzed by mass spectrometry. The peptide-on-membrane chip was incubated overnight at 4° C. with purified tubulin. After extensive washing with TBS (1×) the membranes were incubated with anti-βIII-tubulin antibodies in order to detect the amino acid sequences that interact with tubulin.
In order to identify the sequences responsible for the binding of tubulin to the neurofilaments, we use peptide-on-membrane chips, corresponding to the three neurofilament subunits (see experimental procedures). This method makes it possible to identify the binding domain involved in protein-protein interaction. […] The NFL subunit contains two tubulin binding sequences of 24 amino acids which we call NFL-TBS1 and NFL-TBS2 whereas NFM-TBS and NFH-TBS both contain 39 amino acids (FIG. 2A). […]

The test system of data set [2] is tubulin. Description: Spectrophotometric (turbidimetry, OD 350 nm) analysis of microtubule polymerization. It is filed as biochemical, mice. As to conditions: for influence on polymerization of microtubules (inhibition or activation): in vitro turbidimetry. The protocol: The alteration of tubulin polymerization is measured by measuring the turbidity (optical density at 350 nm) of a tubulin suspension. A decrease in turbidity of at least 1% is a sign of inhibition of tubulin polymerization.
The polymerization of tubulin from the supernatant S3 of a microtubule preparation was investigated by turbidimetry. Briefly, the supernatant S3 (3 mg/ml) was incubated at 37° C. in the presence of 1 mM of GTP in a Helios α thermospectronic spectrophotometer to monitor the variations in optical density at 350 nm.
To test this hypothesis, we conducted turbidimetry experiments with the various peptide sequences identified by blot overlay on the peptide chip. For this purpose, the supernatant S3 (containing free tubulin), obtained from a microtubule preparation, was polymerized at 37° C. in the presence of 1 mM GTP and several concentrations (3, 10, 30, and 100 μM) of tubulin binding peptide, which were added before polymerization (t=0).
As previously for the NF-TBS peptides, studies of the influence of the peptides of vimentin, cytokeratin and GFAP identified by peptide chip on the assembly of microtubules in vitro were carried out by the same technique as described previously in the Material and Method section (Spectrophotometric analysis of microtubule polymerization) in Example 1.

The subject of data set [3] is T98G cells. The data set is described as follows: FACS (flow cytometry) cell cycle analysis. Type of data set: cell-based. From the text: (B-B′): Analysis by flow cytometry of control cells and cells treated with the peptides SEQ ID No. 6.
The microtubules constitute an important component of the achromatic spindle. To determine whether the presence of peptides SEQ ID No. 6 could affect cell division, the inventors usually carry out a FACS (Fluorescence Activated Cell Sorter) analysis to compare the distribution of the cycles of control cells and T98G cells treated with 10 μm of peptide SEQ ID No. 6.
In order to determine how a peptide that is an activator of microtubule polymerization affects cell division, a FACS analysis was carried out to compare the distribution of the cycles of untreated T98G cells (without peptide) or treated with 100 μm of peptide GFAP-TBS1 (SEQ ID No. 26), by the same protocol as that described in Example 2.
A general note: In flow cytometry, cells or beads pass a laser one at a time.

The subject of data set [4] is T98G cells. Description: Peptide uptake and in-situ microtubule network by immunofluorescence. Type of data set: cell-based. The note with it: 6 hours. How it is done: (A-A′-A″): The T98G cells are treated with the peptides SEQ ID No. 6 (10 μM) for 6 hours and the microtubules are then detected using an anti-tubulin antibody (red) and the biotinylated peptides SEQ ID No. 6 are detected using Alexa-labeled avidin (green).
To determine whether they could also modify the in-situ assembly of microtubules, T98G cells were incubated with 10 μm of biotinylated peptides SEQ ID No. 6. After incubation for 6 hours, more than 75% of the cells contain the peptide (FIG. 8 A, A′, A″) and are characterized by an unusual spherical shape.

In data set [5] the test system is T98G cells. Description: MTS cell proliferation test. It is filed as cell-based. An excerpt:
The effect of exposure of peptide SEQ ID No. 6 on cell proliferation was confirmed using MTS analysis (described in Cory A. H. et al., 1991, Cancer Commun. 3, 207-212, incorporated here by reference) in which the inventors observed fewer cells in the cultures treated with peptide SEQ ID No. 6 (FIG. 8C).

“Also recorded” adds a separate entry of the source.

Take “AYRRVPTETRSSFSRVSGSPSSGFRSQSWSRGSPSTVSS (listed as Mus musculus) [NFM-TBS]”: the “tubulin binding site detected on peptide chip” value (“tubulin binding site detected” for short) with tubulin [1] is reported as “single binding sequence”.
Take “FGYDPYFSTSYKRRYVETPRVHIS (listed as Mus musculus) [NFL-TBS1]”: the “tubulin binding site detected” value in the data set on tubulin [1] is listed as “tubulin binding domains”.
As for “GGAYVTRSSAVRLRSSVPGVRLLQ (listed as Mus musculus) [Vim-TBS2]”, in the data set on tubulin [1], the “tubulin binding site detected” value is given as “tubulin binding sites”. For the same sequence, the “influence on polymerization of microtubules (inhibition or activation)” value (from here on “influence … (inhibition or activation)”) in the data set with tubulin [2] is recorded as “activate microtubule polymerization”.
On to “GSEVHTKKTVMIKTIETRDGE (listed as Mus musculus) [Des-TBS3]”, for which the “tubulin binding site detected” value in the data set on tubulin [1] is on record as “tubulin binding sites”.
“KSVSEGHLKRNIVVKTVEMRD (listed as Mus musculus) [GFAP-TBS3]”: the “tubulin binding site detected” value in the data set on tubulin [1] was “tubulin binding sites”. Moreover, in the data set with tubulin [2], the “influence … (inhibition or activation)” value is recorded as “inhibitors of microtubule polymerization”.
On to “MERRRITSARRSYASETVVRGLGP (listed as Mus musculus) [GFAP-TBS1]”, for which the “tubulin binding site detected” value with tubulin [1] is “tubulin binding sites”. Further, the “cell cycle effect compared with control cells” value in the data set with T98G cells [3] (100 μM, 36 hours) was “strong stopping in phase G1; also recorded: inhibits cell division”. The “influence … (inhibition or activation)” value in the data set with tubulin [2] was “activate microtubule polymerization”.
Turning to “MSIRVTQKSYKMSTSGPRAFSSRSFTSGPGARISSSSFSRVGSSSSSFRGSMGT (listed as Mus musculus) [Ker-TBS1]”, the “tubulin binding site detected” value in the data set with tubulin [1] is recorded as “tubulin binding sites”. The “influence … (inhibition or activation)” value with tubulin [2] is recorded as “activate microtubule polymerization”.
With “MSQAYSSSQRVSSYRRTFGGAPGFSLG (listed as Mus musculus) [Des-TBS1]”, in the data set with tubulin [1], the “tubulin binding site detected” value is “tubulin binding sites”.
Still for that read-out and setting: in the case of “MSTRSVSSSSYRRMFGGS (listed as Mus musculus) [Vim-TBS1]” it was “tubulin binding sites”.
On to “QIKSLNNKFASFIDKVRFLEQ (listed as Mus musculus) [Ker-TBS2]”, for which the “tubulin binding site detected” value with tubulin [1] is on record as “tubulin binding sites”.
As for “RSAAGSSSGFHSWARTSVSSVSASPSRFRGAASSTDSLD (listed as Mus musculus) [NFH-TBS]”, the “tubulin binding site detected” value with tubulin [1] is “single binding sequence”.
Take “SAGGSNTFSRTTKAVVVKKIETRDGKLVSE (listed as Mus musculus) [Ker-TBS3]”: in the data set with tubulin [1], the “tubulin binding site detected” value is listed as “tubulin binding sites”.
As to “SLPLVDTHSKRTLLIKTVETR (listed as Mus musculus) [Vim-TBS3]”, the “tubulin binding site detected” value with tubulin [1] was “tubulin binding sites”. For the same sequence, the “influence … (inhibition or activation)” value in the data set with tubulin [2] is given as “inhibitors of microtubule polymerization”.
On to “SSPVFPRAGFGTKGSSSSMTSRVYQVSRTSGGAGGLGSLRSSRLGTTRAPSYGA (listed as Mus musculus) [Des-TBS2]”, for which, in the data set on tubulin [1], the “tubulin binding site detected” value was “tubulin binding sites”.
Turning to “VRGLGPSRQLGTMPRFSLSRMTPPLPARVDFSLAGA (listed as Mus musculus) [GFAP-TBS2]”, the “tubulin binding site detected” value with tubulin [1] is given as “tubulin binding sites”.
For the sequence “YSSYSAPVSSSLSVRRSYSSSSGS (listed as Mus musculus) [NFL-TBS2]”, the “tubulin binding site detected” value with tubulin [1] is “tubulin binding domains”. The “microtubule network in cells containing the peptide” value with T98G cells [4] (10 μM, anti-tubulin antibody, listed as SEQ ID No. 6) is on record as “lack a typical microtubule network; also recorded: disunited network of microtubules”. The “cells containing the peptide” value with T98G cells [4] (biotinylated peptide, 10 μm) is recorded as “more than 75%”. For the same sequence, in the data set with T98G cells [5] (10 μM for 48 hours, listed as SEQ ID No. 6), the “proliferation of T98G cells relative to untreated control” value was “greatly reduced; also recorded: fewer cells”. Moreover, the “degradation or elimination of peptide during culture” value in the data set with T98G cells [5] (inferred from comparison with medium replaced at 24 hours) is “little (if any) degradation or elimination”. Besides, the “inhibition of the increase in number of cells” value in the data set on T98G cells [5] (medium containing peptide replaced at 24 hours, data not shown) was “clearly observed”. For the same sequence, in the data set on T98G cells [3] (10 μM, 48 hours), the “cell cycle effect compared with control cells” value was “strong stopping in phase G1”. In addition, the “cells in phase G1 of mitosis” value in the data set with T98G cells [3] (10 μm peptide, culture for 48 hours (untreated 39%)) amounted to 61%. For the same sequence, the “inhibition of tubulin polymerization” value in the data set with tubulin [2] (100 μM peptide, supernatant S3, 37° C., 1 mM GTP) was found to be 100%. In the data set with tubulin [2], the “influence … (inhibition or activation)” value is reported as “powerful effect; also recorded: inhibitors of microtubule polymerization”.

The values above are taken from US9023806B2, “Peptide capable of altering tubulin polymerization and use thereof for inhibiting cell proliferation” (Universite d'Angers, priority 2004, dated 2015).
